The test relates to SMMC-7721 cells. The test can be described thus: Transwell migration assay. It is filed as cell-based, human. As to conditions: 48 h, vs ethanol control. The procedure:
The transwell migration and invasion experiments were conducted using a 24-well plate (cat# 3422, Corning). HepG2 and SMMC-7721 cells (5 × 10^4) were suspended in 100 µL of medium supplied with ethanol, 150 and 300 µM of BCP and added to the top chamber, while 600 µL of complete medium containing 10% FBS was added into the lower chamber. After 48 h of incubation at 37°C, the cells from the top chamber were carefully removed using a cotton swab, while the cells penetrated through the membrane were fixed using 600 µL of 70% methanol for 15 min. To stain the cells, 600 µL of 0.2% crystal violet was used to treat the Transwell inserts for 10 min, followed by washing and drying, and the membranes of the inserts were photographed using an inverted microscope (Leica DM13000 B). The positive staining area was calculated using ImageJ software.

For `C=C1CC/C=C(\C)CC[C@@H]2[C@@H]1CC2(C)C` [BCP, β-caryophyllene], the “reduction of cell migration” value is, setting by setting: (SMMC-7721, 150 µM) 18.06%; (SMMC-7721, 300 µM) 52.19%.
